We go through one compound from patent US9808470B2, “Estrogenic components for use in the treatment of neurological disorders” (UNIVERSITE DE LIEGE, priority 2012, dated 2017).

Data set [1] deals with intact cells in hippocampus and cortex. The data set is described as follows: Ex.2 neonatal HIE rat model, pre-treatment: hematoxylin-eosin staining and intact cell counting. Format: in vivo. As to the method:
Paraformaldehyde-fixed paraffin embedded samples of the removed brains were coronally sectioned at the same level of the hippocampus region in accordance to the Paxinos rat brain atlas (Paxinos and Watson 2007. In: The rat brain in stereotaxic coordinates, 6th edition). Thickness of sections was 5 μm. Hematoxylin-eosin staining was performed. Briefly, sections were deparaffinized in xylene and rehydrated in graded ethanol concentrations before staining. Slides were stained with hematoxylin, rinsed for a few seconds in water, then placed in 1% eosin and washed, dehydrated, and coverslipped.
Intact cell counting was performed on hematoxylin-eosin-stained sections of the rat pups brains at magnification 400× in 3 fields of the respective brain area. Countings were performed in cortex and hippocampus (regions: dentate gyrus (DG), subgranular zone (SGZ), cornu ammonis (CA1, CA2/CA3)). The sections were analyzed with the aid of a microscope (Olympus BX51, Olympus, Tokyo, Japan), an image scanner (DotSlide Digital Virtual Microscopy, Olympus, Germany) and ImageJ software (NIH, US).
Intact cells are uninjured. Injured cells are characterized by a pale eosinophilic staining along with non-uniform nuclear densities-shrunken, condensed, or pale and enlarged.
After delivery, newborn rat pups were assigned to one of the following 4 groups: Sham group, Vehicle group, E4 5 mg/kg/per day group and E4 50 mg/kg/per day group. From day 4 to day 7 inclusive, rat pups were injected intraperitoneally either vehicle (Vehicle group) or E4 (5 mg/kg or 50 mg/kg in accordance to the group assignment) or not injected at all (Sham group). At day 7, 30 minutes after last injection, animals from Vehicle and E4 (5 mg/kg or 50 mg/kg) groups passed through surgery encompassing left common carotid artery double ligation and cut, followed by hypoxia produced by the inhalation of 11%-8% of oxygen balanced by nitrogen at decreased concentration for 20 minutes, followed by inhalation of 8% oxygen and 92% nitrogen at constant concentration for 35 minutes. The Sham group went through similar procedures without left common carotid artery ligation and hypoxia. All the manipulations were performed at 37° C. Rat pups recovered with their dams until being sacrificed at postnatal day 14.

The test system is the same in data set [2]. The data set is described as follows: Ex.8 neuroprotective HIE rat model: intact cell counting. The format is in vivo. As to the method:
Newborn rat pups were assigned to one of the following 14 groups from postnatal day 4 (FIG. 23(A)): Sham group (n=12), Vehicle group (n=17), 5 mg/kg/day E4 (n=13), 10 mg/kg/day E4 (n=10), 5 mg/kg/day E4+1.6 mg/kg/day PROG (n=11), 10 mg/kg/day E4+1.6 mg/kg/day PROG (n=11), 5 mg/kg/day E4+16 mg/kg/day PROG (n=11), 10 mg/kg/day E4+16 mg/kg/day PROG (n=11), 5 mg/kg/day E4+136 ng//kg/day E2 (n=11), 10 mg/kg/day E4+136 ng/kg/day E2 (n=11), 5 mg/kg/day E4+1.6 mg/kg/day PROG+136 ng/kg/day (n=13) E2, 10 mg/kg/day E4+1.6 mg/kg/day PROG+136 ng/kg/day E2 (n=16), 5 mg/kg/day E4+16 mg/kg/day PROG+136 ng/kg/day E2 (n=11), 10 mg/kg/day E4+16 mg/kg/day PROG+136 ng/kg/day groups (n=13). Intraperitoneal injections of the pups from study groups were performed from postnatal day 4 to postnatal day 7 inclusively. At day 7, 30 minutes after last injection, animals were anesthetized with isoflurane (induction, 3.0%; maintenance, 1.5%), and the rat pups from vehicle and all the other groups, except the sham group, passed through surgery encompassing left common carotid artery double ligation and cut. After the procedure, the pups were returned to their dams and were allowed to recover for 1 hour. The pups were then placed in the humidified hypoxic in vivo cabinet (CoyLab, Grass Lake, Mich., USA). Hypoxia was produced by the inhalation of 11%-8% of oxygen balanced by nitrogen at decreased concentration of oxygen for 20 minutes, followed by inhalation of 8% oxygen and 92% nitrogen at constant concentration for 35 minutes. All the manipulations were performed at 37° C. The Sham group went through similar procedures without left common carotid artery ligation followed by neither hypoxia nor injection. […]
Intact cell counting was performed on hematoxylin-eosin-stained sections of the rat pups brains at magnification 400× in 3 fields of the respective brain area. […] The sections were analyzed with the aid of a microscope (Olympus BX51, Olympus, Tokyo, Japan), an image scanner (DotSlide Digital Virtual Microscopy, Olympus, Germany) and ImageJ software (NIH, US). […]

The test system of data set [3] is Microtubule-associated protein 2 (MAP2). The data set is described as follows: Ex.8 neuroprotective HIE rat model: MAP2 staining. The note with it: 10 mg/kg/day E4. Format: in vivo. As to the method:
Newborn rat pups were assigned to one of the following 14 groups from postnatal day 4 (FIG. 23(A)): Sham group (n=12), Vehicle group (n=17), 5 mg/kg/day E4 (n=13), 10 mg/kg/day E4 (n=10), 5 mg/kg/day E4+1.6 mg/kg/day PROG (n=11), 10 mg/kg/day E4+1.6 mg/kg/day PROG (n=11), 5 mg/kg/day E4+16 mg/kg/day PROG (n=11), 10 mg/kg/day E4+16 mg/kg/day PROG (n=11), 5 mg/kg/day E4+136 ng//kg/day E2 (n=11), 10 mg/kg/day E4+136 ng/kg/day E2 (n=11), 5 mg/kg/day E4+1.6 mg/kg/day PROG+136 ng/kg/day (n=13) E2, 10 mg/kg/day E4+1.6 mg/kg/day PROG+136 ng/kg/day E2 (n=16), 5 mg/kg/day E4+16 mg/kg/day PROG+136 ng/kg/day E2 (n=11), 10 mg/kg/day E4+16 mg/kg/day PROG+136 ng/kg/day groups (n=13). Intraperitoneal injections of the pups from study groups were performed from postnatal day 4 to postnatal day 7 inclusively. […]
The brain sections were processed for immunohistochemical detection of neuronal cytoskeletal disruption. […] Samples were analyzed with the aid of an image scanner (Nanozoomer Virtual Microscopy, Hamamatsu, Tokyo, Japan) and the ImageJ software (NIH, US). The positive areas in the ipsilateral and contralateral hemispheres were measured. The ratio of the MAP2 positive areas was calculated as the MAP2 positive area of the ipsilateral hemisphere divided by the MAP2 positive area of the contralateral hemisphere. […]

For data set [4] the following is noted: octanol-water; depending on experimental settings; listed as estetrol; cited from earlier work.

Values joined by “and” are separate entries in the source; they are usually repeats but may differ in a detail not shown here. Identical values can stand only once.

As for `C[C@]12CC[C@@H]3c4ccc(O)cc4CC[C@H]3[C@@H]1[C@@H](O)[C@@H](O)[C@@H]2O` [E4, 1,3,5(10)-estratrien-3,15α,16α,17β-tetrol], the “number of intact cells per visual field” value in data set [1] (E4 5 mg/kg ip day 4-7 before HI, DG, vs Vehicle) is reported as “significantly higher”; in data set [1] (E4 5 mg/kg ip day 4-7 before HI, SGZ, vs Sham and Vehicle) it was “significantly higher”; in data set [1] (E4 50 mg/kg ip day 4-7 before HI, CA2/CA3, vs Vehicle and E4 5 mg/kg), “significantly higher number of intact cells”; in data set [1] (E4 50 mg/kg ip day 4-7 before HI, cortex, vs Vehicle), “significantly higher number of intact cells”; in data set [1] (E4 5 and 50 mg/kg ip day 4-7 before HI, CA1, among study groups), “non-significant difference”; in data set [2] (5 mg/kg/day E4, SGZ), 72.10±5.93. The “number of intact cells per visual field” value in data set [2] (10 mg/kg/day E4, DG) was 227.30±14.18; in data set [2] (10 mg/kg/day E4, SGZ), 86.10±5.84. For the same compound, the “Hematoxylin-Eosin staining of hippocampus region” value in data set [1] (E4 5 and 50 mg/kg ip day 4-7 before HI, day 14) was “neuroprotective effect”. Besides, the “ratio of MAP2-positive area (ipsilateral/contralateral)” value in data set [3] was 0.97±0.01. For the same compound, the “Pow Log” value in data set [4] is 1.47 and 1.695.
